Assays:
[1] = tested on: human tTreg; experiment: Foxp3 expression in expanded tTreg by flow cytometry; type: cell-based; conditions: for Foxp3 protein expression at the population level (% Foxp3+CD127−): 50 nM RNA, antagomir vs scrambled P<0.05
Description: (§1) tTreg and CD4+ T-cell cultures, generated as described herein, were frozen on days 14 and 7, respectively. Frozen cells were thawed and re-stimulated with anti-CD3/CD28 mAb-coated Dynabeads (Life Technologies, Carlsbad, Calif.) at 1:3 (cell to bead) ratios in the presence of recombinant IL-2. After 6 days, cultures were washed, re-suspended at 1×10^6 cells/ml, and nanoparticle-encapsulated RNA (50 nM; Scramble/Antagomir, Table 4: EXIQON, Woburn, Mass.) or TRAF6 inhibitor (8 μM, Darmstadt, Germany) or NF-kB inhibitor (PS-1145, 3 μM or 6 μM, Millennium Pharmaceuticals, Cambridge, Mass.) were added. DMSO were vehicles and used as controls. Cells were cultured another 2 days without further manipulation, and were harvested and assayed as listed. For some experiments, tTreg were kept in culture longer (as indicated) without further antagomir addition.
(§2) Human-specific antibodies used for flow cytometry included: CD4 (RPA-T4), CD8 (RPA-T8), CD25 (M-A251), CD45RA (HI100), IFN-gamma, IL-17a, annexin V (PE), 7-AAD (FITC) were purchased from BD Pharmingen, while Foxp3 (clone 249D) was obtained from BioLegend and Ki67 from eBioscience. For cytokine analysis, cells were pre-treated by PMA, ionomycin and brefeldin A for 6 hours and then stained by different cytokine antibodies. The annexin V (PE)/7-AAD (FITC) were applied to assess the apoptosis of tTreg. Acquisition was performed using a LSRII (BD Bioscience) and data were analyzed using FlowJo software (TreeStar) or IDEA (Admin). Nuclear localization of NF-kB was quantitated using an imaging flow cytometer (Imagestream, Amnis Corp; Seattle, Wash.) by intracellularly staining tTreg with anti-NF-kB (vendor) and, after washing, incubating with DRAQ5 for 15 minutes at 10 μM final concentration.

[2] = tested on: human tTreg; experiment: CFSE in vitro suppression assay (anti-CD3-mediated CD8+ T cell proliferation); type: cell-based
Description: The in vitro-suppressive capacity of expanded tTregs was assessed with a carboxy fluorescein succinimidyl ester (CFSE) inhibition assay as previously published (Hippen et al., Blood, 2008, 112(7):2847-57). Briefly, PBMNCs were purified, labeled with CFSE (Invitrogen), and stimulated with anti-CD3 mAb-coated beads (Dynal) ±cultured tTreg (1:2 to 1:32 tTregs/PBMNCs). On day 4, cells were stained with antibodies to CD4 and CD8, and suppression was determined from the Division Index (FlowJo, TreeStar). nTregs suppressed CD4 and CD8 T cell responses equivalently and only CD8 data are presented.

[3] = tested on: TRAF6; experiment: TRAF6 mRNA (RT-PCR) and protein (flow cytometry) expression in tTreg; type: cell-based, human; conditions: expanded tTregs; for TRAF6 mRNA expression: RT-PCR
Description: as §1
as §2, with “For cytokine analysis, cells were pre-treated by PMA, ionomycin and brefeldin A for 6 hours and then stained by different cytokine antibodies. The annexin V (PE)/7-AAD (FITC) were applied to assess the apoptosis of tTreg.” left out
(§3) RNA was extracted from cell pellets using RNeasy Mini Kit with on-column DNase digestion (Qiagen; Hilden, Germany). cDNA synthesis was performed as described in the Expression Analysis Technical Manual (Affymetrix; Santa Clara, Calif.). GAPDH was used as control gene and related gene expression (Bcl-2, Mcl-1, Bcl-xL, BID and BAX; all from IDT, Coralville, Iowa), was analyzed on an Applied Biosystems 7500 Real-Time PCR System using Taqman Universal PCR Master Mix #4304437 and Assay on Demand primer/probe kits (Applied Biosystems; Waltham, Mass.). […]

[4] = tested on: NF-kB; experiment: NF-kB nuclear localization by imaging flow cytometry; type: cell-based, human; conditions: tTreg, 2 days, vs untreated or scramble-treated
Description: as §2
TRAF6 is critical for TCR-mediated activation of NF-kB, and acts by ubiquitinylating TAK1, leading to activation of IKK and destruction of IkB, which allows NF-kB to translocate to the nucleus. To determine whether miR-146 antagomir enhanced NF-kB nuclear translocation, in vitro expanded tTreg were left untreated or treated for 2 days with scrambled RNA or miR-146b-5p antagomir, stained for CD4, NF-kB and DRAQ5 (a nuclear marker) and analyzed using imaging flow cytometry. […]

[5] = tested on: control CD4 T-cells; experiment: Foxp3 expression and suppressive function of control CD4 T-cells; type: cell-based, human; conditions: antagomir for final 2 days
Description: as §1, with “Cells were cultured another 2 days without further manipulation, and were harvested and assayed as listed. For some experiments, tTreg were kept in culture longer (as indicated) without further antagomir addition.” left out
as §2, with “For cytokine analysis, cells were pre-treated by PMA, ionomycin and brefeldin A for 6 hours and then stained by different cytokine antibodies. The annexin V (PE)/7-AAD (FITC) were applied to assess the apoptosis of tTreg.” left out, “concentration. […]” for “concentration.”

[6] = tested on: human tTreg; experiment: tTreg expansion, viability (annexin V/7-AAD) and Ki-67 staining; type: cell-based
Description: as §1, §2

[7] = tested on: human tTreg; experiment: Intracellular IFN-gamma assay after PMA/ionomycin re-stimulation; type: cell-based; conditions: final 2 days treatment
Description: as §2

[8] = tested on: human tTreg; experiment: qRT-PCR of NF-kB-responsive, anti- and pro-apoptotic genes in tTreg; type: cell-based
Description: RNA was extracted from cell pellets using RNeasy Mini Kit with on-column DNase digestion (Qiagen; Hilden, Germany). cDNA synthesis was performed as described in the Expression Analysis Technical Manual (Affymetrix; Santa Clara, Calif.). GAPDH was used as control gene and related gene expression (Bcl-2, Mcl-1, Bcl-xL, BID and BAX; all from IDT, Coralville, Iowa), was analyzed on an Applied Biosystems 7500 Real-Time PCR System using Taqman Universal PCR Master Mix #4304437 and Assay on Demand primer/probe kits (Applied Biosystems; Waltham, Mass.). For TLDA assay, TLDA v2.0 was performed on the 7900HT real-time PCR system (Applied Biosystems) according to the manufacturer's protocol. Average delta CT was acquired from the results for further analysis. PCR cycling conditions were performed as follows: 95° C. for 15 s and 60° C. for 1 min, 40 cycles and then 95° C. for 10 min. To normalize RNA input, Human RNU44 (Table 4) small RNA was used as an internal control.

[9] = tested on: miR-146b-5p; experiment: miR-146b-5p knockdown in expanded tTreg by qRT-PCR; type: cell-based, human
Description: as §1, with “For some experiments, tTreg were kept in culture longer (as indicated) without further antagomir addition.” left out
as §3

With O=C(Nc1cc(Cl)cc2c1[nH]c1cnccc12)c1cccnc1 [PS1145, reference compound] the Foxp3 expression ([1]; tTreg, NF-kB inhibitor 3 μM or 6 μM, final 2 days, vs DMSO) was “decreased Foxp3 expression in a dose-dependent manner” and the “in vitro suppressive function” value ([2]; tTreg, NF-kB inhibitor, final 2 days) was “significantly decreased in vitro suppressive function”.

In the case of “Scramble: nanoparticle-encapsulated scrambled control RNA, TAA CAC GTC TAT ACG CCC A (SEQ ID NO: 1) (TAACACGTCTATACGCCCA; nanoparticle-encapsulated, chemistry not given here) [reference compound]”, the “Foxp3 protein expression at the population level (% Foxp3+CD127−)” value ([1]; tTreg, final 2 days) is reported as 73.1%±4.6% and the “TRAF6 mRNA expression” value [3] is reported as “no effect was observed”.

With “miR-146b-5p antagomir: nanoparticle-encapsulated antagomir RNA (EXIQON), AGCCTATGGAATTCAGTTCTC (SEQ ID NO: 2) (AGCCTATGGAATTCAGTTCTC; nanoparticle-encapsulated Exiqon antagomir, chemistry not given here)” the Foxp3 expression ([1]; day 8 after single treatment) was “maintained their higher Foxp3 expression”, the “Foxp3 protein expression at the population level (% Foxp3+CD127−)” value ([1]; tTreg, final 2 days) was 85.5%±3.5% and the “Foxp3 protein expression at per-cell level” value ([1]; tTreg, 2 days, compared to scrambled group) was “increased Foxp3 protein expression”. For the same compound, the suppressive function ([2]; day 8 after single treatment) was “maintained their higher Foxp3 expression and suppressive function”, the “increase in efficacy of tTreg suppressive function” value ([2]; tTreg:PBMC 1:8 to 1:32, antagomir-treated at 1:16 as suppressive as scramble-treated at 1:8) was ~2 fold and the “NF-kB/DRAQ5 similarity score (nuclear localization)” value [4] was “significantly higher similarity scores”. The “TRAF6 mRNA expression” value [3] was “significantly higher TRAF6 mRNA expression”, the TRAF6 protein expression ([3]; flow cytometry, vs untreated or scramble-treated) was “significantly enhanced TRAF6 protein expression” and the “FoxP3 expression in control CD4 T-cells” value [5] was “no effect on FoxP3 expression”. The “suppressive function of control CD4 T-cells” value [5] was “no effect on FoxP3 expression or suppressive function”, the tTreg viability ([6]; 2 days treatment, annexin V/7-AAD) was “increased viability” and the “Ki67 MFI level” value ([6]; 2 days treatment, n=5) was “higher relative Ki67 MFI level”. For the same compound, the tTreg expansion ([6]; day 8 post single treatment, vs untreated or scrambled RNA) was “expanded significantly more”, the tTreg expansion ([6]; initial 2 day treatment period) was “no significant difference in expansion” and the “IFN-gamma expression in expanded tTregs” value [7] was “expression was not affected”. The Bcl-xL expression ([8]; anti-apoptotic gene, tTreg) was “increased expression”, the Mcl-1 expression ([8]; anti-apoptotic gene, tTreg) was “increased expression” and the c-myc expression increase ([8]; over untreated or scramble-treated tTreg) was > 3 fold. For the same compound, the BAX expression ([8]; pro-apoptotic gene, tTreg) was “decreased expression”, the BID expression ([8]; pro-apoptotic gene, tTreg) was “decreased expression” and the miR-146b expression reduced ([9]; day 8 after a single antagomir treatment (not shown)) was 70%. The miR-146b-5p knockdown efficiency ([9]; tTreg, nanoparticle-encapsulated antagomir 50 nM, 2 days, qRT-PCR) was > 95%.

From patent publication US20220348870A1, “MATERIALS AND METHODS FOR MODIFYING THE ACTIVITY OF T CELLS” (Regents of the University of Minnesota, priority 2016, published 2022)
